Where two headings read alike, the source gives them in different places.
Tests used:
HepG2 cells = experiment: SRB assay, cytotoxicity of topotecan ± safranal; assay type: cell-based; conditions: for IC50: Homo sapiens
Experimental: SRB assay. The effect of safranal on the cytotoxicity of the topoisomerase 1 inhibitor topotecan was tested using the sulforhodamine-B (SRB) assay as previously described. Exponentially growing HepG2 cells were seeded in 96-well plates at cell density of 1×10^4 cells per well. […] At the end of the incubation period, cells were fixed with 50% trichloroacetic acid (TCA) for 1 hours at 4° C. followed by washing, staining with SRB for 30 min followed by washing and solubilization of the stain with 10 mM Tris base (pH 10.5). The optical density (OD) at each well was measured spectrophotometrically at 564 nm with an ELISA microplate reader (Metertech. S960, USA). The IC50 values were calculated using sigmoidal concentration-response curve fitting models (Graph Pad, Prizm software).

[1] = system: DEN-induced hepatic neoplasia; experiment: Serum ALT and AST in DEN-induced HCC model; assay type: in vivo, male Wistar rats; conditions: HCC rats, oral gavage 5 days a week, weeks 17-19, safranal 200 mg/kg, sorafenib 10 mg/kg, mean±SEM, n=6
Experimental: A modified version of the protocol described by DePeralta et al. (2016) and Schiffer et al. (2005) was used here to establish the hepatocarcinogenesis model.
On the first 15 weeks, the control PBS group was treated with 1×PBS, whereas the experimental groups were given an intraperitoneal injection (IP) of 50 mg/kg of diethylnitrosoamine (DEN, Sigma Aldrich), a widely used chemical for inducing cancer, once a week. DEN was diluted with 1×PBS. Following a one-week break (week 16), the next three weeks (weeks 17 to 19) of treatment commenced. All drugs were administrated by oral gavage. All doses were chosen according to literature (Alsaied et al., 2014; Karafakioglu et al., 2017). For the HCC+sorafenib group, the drug (Carbosynth Limited) was administered at a dose of 10 mg/kg, five days a week. For the HCC+safranal group, the drug (Sigma Aldrich) was administered at a dose of 200 mg/kg, five days a week. For the HCC+safranal+sorafenib group, the drugs were administered at a dose of 200 mg/kg safranal+10 mg/kg sorafenib, five days a week. Both safranal and sorafenib were diluted with 1×PBS and drops of Tween 80. […] After 24-hours from last treatment, the rats were euthanized by mild diethyl ether and dissected in equal conditions. Blood and whole liver were collected.
Rats were euthanized then blood was collected by decapitation and processed for later investigation. The blood was collected in collection tubes (BD Vacutainer) and serum was separated by centrifugation at 1200× g for 10 minutes. Serum was collected and flash frozen immediately then stored at −80° C. for further analysis.
Alanine Transaminase (ALT), and Aspartate Aminotransferase (AST) assays were performed using commercial kits (Abcam), according to the protocol provided. ALT and AST activities were measured spectrophotometrically using Epoch by BioTek.

Row | SMILES | sensitization factor (HepG2 cells; HepG2, incubation with safranal for 24 or 48 h before topotecan) | IC50 (HepG2 cells; HepG2, HepG2, SRB, topotecan 48 h alone or after safranal 500 μM pre-incubation, read-out: IC50 of topotecan ± safranal) | IC50 (HepG2 cells; HepG2, HepG2, incubation with safranal for 24 or 48 h before topotecan, read-out: topotecan IC50) | IC50 (HepG2 cells; HepG2, HepG2, topotecan alone, read-out: topotecan IC50) | ALT [1] | AST [1]
1 | CC[C@@]1(O)C(=O)OCc2c1cc1n(c2=O)Cc2cc3c(CN(C)C)c(O)ccc3nc2-1 [Topotecan, topotecan] | 73 | 0.118 µM | 0.0016 µM | 0.118 µM |  | 
2 | CNC(=O)c1cc(Oc2ccc(NC(=O)Nc3ccc(Cl)c(C(F)(F)F)c3)cc2)ccn1 [sorafenib, reference compound] |  |  |  |  | 13.42 ± 1.12 mU/ml | 11.14 ± 0.62 mU/ml

— patent US12521425B2, “Method of liver cancer treatment with safranal-based formulations” (priority 2019, dated 2026)
